# Test results reported in ChEMBL document CHEMBL3885861, “Open TG-GATES”.
# Species on record: Rattus norvegicus
# Experiment: Open TG-GATES - Regimen: Single
# Assay type: toxicity, organism-based, Sprague-Dawley
# Parameters: regimen Single, gender Male, age 6 weeks
# Conditions: in vivo, po, 1000 mg/kg, route gavage, dose level High; for APTT / Bas / Eos / Fbg / Hb / Ht / Lym / MCH / MCHC / MCV / Mono / Neu / PT / Plat / RBC / Ret / WBC: tissue Blood; for KIDNEY_L / KIDNEY_R / KIDNEY_TOTAL: tissue Kidney; for LIVER: tissue Liver; for A/G / ALP / ALT / AST / BUN / CRE / Ca / Cl / DBIL / GLC / IP / K / LDH / Na / PL / RALB / TBIL / TC / TG / TP / gamma-GTP: tissue Plasma
compound,measurement,setting,value
COc1ccc(Cl)cc1C(=O)NCCc1ccc(S(=O)(=O)NC(=O)NC2CCCCC2)cc1 [GLYBURIDE],TERMINAL_BW,3 h,216.5 g
same,APTT,3 h,18.9 s
same,Bas,3 h,0%
same,Eos,3 h,1%
same,Fbg,3 h,226.2 mg/dL
same,Hb,3 h,13.2 g/dL
same,Ht,3 h,40.8%
same,Lym,3 h,69.2%
same,MCH,3 h,20.3 pg
same,MCHC,3 h,32.5%
same,MCV,3 h,62.6 fL
same,Mono,3 h,4%
same,Neu,3 h,25%
same,PT,3 h,12.6 s
same,Plat,3 h,118.1 x10_4/uL
same,RBC,3 h,651.8 x10_4/ul
same,Ret,3 h,7.9%
same,WBC,3 h,75.5 x10_2/uL
same,KIDNEY_L,3 h,0.9 g
same,KIDNEY_R,3 h,1 g
same,KIDNEY_TOTAL,3 h,1.9 g
same,LIVER,3 h,9.5 g
same,A/G,3 h,1.6
same,ALP,3 h,1086.8 IU/L
same,ALT,3 h,43.2 IU/L
same,AST,3 h,67.2 IU/L
same,BUN,3 h,13.2 mg/dL
same,CRE,3 h,0.3 mg/dL
same,Ca,3 h,10.7 mg/dL
same,Cl,3 h,104.4 meq/L
same,DBIL,3 h,0.2 mg/dL
same,GLC,3 h,125.4 mg/dL
same,IP,3 h,7.8 mg/dL
same,K,3 h,3.7 meq/L
same,LDH,3 h,172.8 IU/L
same,Na,3 h,141.8 meq/L
same,PL,3 h,178.6 mg/dL
same,RALB,3 h,3.4 g/dL
same,TBIL,3 h,0.2 mg/dL
same,TC,3 h,85.2 mg/dL
same,TG,3 h,123 mg/dL
same,TP,3 h,5.5 g/dL
same,gamma-GTP,3 h,1.8 IU/L
same,TERMINAL_BW,6 h,217.2 g
same,APTT,6 h,19.4 s
same,Bas,6 h,0%
same,Eos,6 h,0.8%
same,Fbg,6 h,240.8 mg/dL
same,Hb,6 h,13.6 g/dL
same,Ht,6 h,41.3%
same,Lym,6 h,79.4%
same,MCH,6 h,20.7 pg
same,MCHC,6 h,32.9%
same,MCV,6 h,62.9 fL
same,Mono,6 h,2.8%
same,Neu,6 h,16.2%
same,PT,6 h,12.6 s
same,Plat,6 h,128.9 x10_4/uL
same,RBC,6 h,657 x10_4/ul
same,Ret,6 h,8.2%
same,WBC,6 h,91.7 x10_2/uL
same,KIDNEY_L,6 h,1 g
same,KIDNEY_R,6 h,1 g
same,KIDNEY_TOTAL,6 h,1.9 g
same,LIVER,6 h,9.7 g
same,A/G,6 h,1.6
same,ALP,6 h,948.2 IU/L
same,ALT,6 h,38.4 IU/L
same,AST,6 h,65.4 IU/L
same,BUN,6 h,12.4 mg/dL
same,CRE,6 h,0.4 mg/dL
same,Ca,6 h,10.6 mg/dL
same,Cl,6 h,104.2 meq/L
same,DBIL,6 h,0.1 mg/dL
same,GLC,6 h,155.8 mg/dL
same,IP,6 h,8.7 mg/dL
same,K,6 h,3.6 meq/L
same,LDH,6 h,169.2 IU/L
same,Na,6 h,141.8 meq/L
same,PL,6 h,154 mg/dL
same,RALB,6 h,3.5 g/dL
same,TBIL,6 h,0.2 mg/dL
same,TC,6 h,82.4 mg/dL
same,TG,6 h,86.4 mg/dL
same,TP,6 h,5.7 g/dL
same,gamma-GTP,6 h,1.6 IU/L
same,TERMINAL_BW,9 h,211.6 g
same,APTT,9 h,18.9 s
same,Bas,9 h,0%
same,Eos,9 h,1%
same,Fbg,9 h,228 mg/dL
same,Hb,9 h,13.3 g/dL
same,Ht,9 h,40.7%
same,Lym,9 h,76%
same,MCH,9 h,20.4 pg
same,MCHC,9 h,32.6%
same,MCV,9 h,62.5 fL
same,Mono,9 h,2.8%
same,Neu,9 h,19.6%
same,PT,9 h,12.9 s
same,Plat,9 h,115.6 x10_4/uL
same,RBC,9 h,651.2 x10_4/ul
same,Ret,9 h,7.8%
same,WBC,9 h,83.2 x10_2/uL
same,KIDNEY_L,9 h,0.9 g
same,KIDNEY_R,9 h,0.9 g
same,KIDNEY_TOTAL,9 h,1.8 g
same,LIVER,9 h,8.7 g
same,A/G,9 h,1.7
same,ALP,9 h,1050.6 IU/L
same,ALT,9 h,35.4 IU/L
same,AST,9 h,65.2 IU/L
same,BUN,9 h,12.8 mg/dL
same,CRE,9 h,0.4 mg/dL
same,Ca,9 h,10.7 mg/dL
same,Cl,9 h,103.8 meq/L
same,DBIL,9 h,0.1 mg/dL
same,GLC,9 h,139 mg/dL
same,IP,9 h,9.5 mg/dL
same,K,9 h,3.5 meq/L
same,LDH,9 h,168.2 IU/L
same,Na,9 h,142.2 meq/L
same,PL,9 h,141 mg/dL
same,RALB,9 h,3.5 g/dL
same,TBIL,9 h,0.2 mg/dL
same,TC,9 h,70.8 mg/dL
same,TG,9 h,64.2 mg/dL
same,TP,9 h,5.7 g/dL
same,gamma-GTP,9 h,0.6 IU/L
same,TERMINAL_BW,24 h,226 g
same,APTT,24 h,18.8 s
same,Bas,24 h,0.2%
same,Eos,24 h,1%
same,Fbg,24 h,215.2 mg/dL
same,Hb,24 h,13 g/dL
same,Ht,24 h,38.3%
same,Lym,24 h,77.2%
same,MCH,24 h,21.6 pg
same,MCHC,24 h,33.9%
same,MCV,24 h,63.9 fL
same,Mono,24 h,2.8%
same,Neu,24 h,18.6%
same,PT,24 h,12.8 s
same,Plat,24 h,126.5 x10_4/uL
same,RBC,24 h,600.8 x10_4/ul
same,Ret,24 h,6.8%
same,WBC,24 h,87.8 x10_2/uL
same,KIDNEY_L,24 h,1 g
same,KIDNEY_R,24 h,1 g
same,KIDNEY_TOTAL,24 h,1.9 g
same,LIVER,24 h,10.1 g
same,A/G,24 h,1.7
same,ALP,24 h,923.4 IU/L
same,ALT,24 h,35.6 IU/L
same,AST,24 h,69.2 IU/L
same,BUN,24 h,16.2 mg/dL
same,CRE,24 h,0.3 mg/dL
same,Ca,24 h,10.7 mg/dL
same,Cl,24 h,103.4 meq/L
same,DBIL,24 h,0.1 mg/dL
same,GLC,24 h,195 mg/dL
same,IP,24 h,7.7 mg/dL
same,K,24 h,3.4 meq/L
same,LDH,24 h,218.2 IU/L
same,Na,24 h,142.6 meq/L
same,PL,24 h,143.6 mg/dL
same,RALB,24 h,3.5 g/dL
same,TBIL,24 h,0.2 mg/dL
same,TC,24 h,75.4 mg/dL
same,TG,24 h,74 mg/dL
same,TP,24 h,5.5 g/dL
same,gamma-GTP,24 h,1.4 IU/L
